Assay results taken from patent publication US9486440B2, “Uses of indole-ketones or indolidones as neuro-protective drugs” (UNIVERSITY OF MACAU, priority 2011, dated 2016).
Entries after “also recorded” stand apart in the source; their conditions may differ.

Key:
[1] = target: nNOS (Homo sapiens, UniProt P29475); details: cited from earlier work
[2] = tested on: intracellular NO; experiment: Intracellular NO in CGNs after MPP+ (DAF-FM diacetate); assay type: cell-based, rat; details: pre-treatment 2 hours, 35 μM MPP+, 24 hours; SU4312 3-30 μM, 7-NI 3-10 μM
Protocol: (§1) Intracellular NO was monitored with 4-Amino-5-methylamino-2′,7′-difluorofluorescein (DAF-FM) diacetate, a pH-insensitive fluorescent dye that emits increased fluorescence after reaction with an active intermediate of NO formed during the spontaneous oxidation of NO to NO2 (Sheng et al., 2005). DAF-FM solution was added to the culture medium (final concentration: 5 μM). After 30 min in a CO2 incubator, cultures were washed twice with PBS and incubated for an additional 30 min to allow complete de-esterification of the intracellular diacetate for stronger fluorescence. The DAF-FM fluorescence in CGNs was quantified by a multi-detection microplate reader using excitation and emission wavelengths of 495 nm and 515 nm, respectively. The measured fluorescence values were expressed as a percentage of the fluorescence in the control cells.
as §1, with “(4-amino-5-methylamino-2′,7′-difluorofluorescein) DAF-FM” for “4-Amino-5-methylamino-2′,7′-difluorofluorescein (DAF-FM)”, “After incubation for” for “After”, “another” for “an additional”, “strong” for “stronger”

[3] = tested on: SH-SY5Y cells; experiment: MPP+-induced neurotoxicity in SH-SY5Y cells, MTT assay; assay type: cell-based, human; details: for MPP+-induced neuronal death in SH-SY5Y cells (MTT): pre-treatment 2 hours, then 1 mM MPP+ for 24 hours
Protocol: The human neuroblastoma SH-SY5Y cells were obtained from ATCC. The cells were maintained in supplemented Dulbecco's modified eagle medium (DMEM), 10% fetal bovine serum, 100 U/ml penicillin, and 100 μg/ml streptomycin in a 37° C., 5% CO2 incubator. PC12 pheochromocytoma cells were also obtained from ATCC. The cells were cultured in medium that consisted of DMEM, 10% heat-inactivated horse serum, 5% fetal bovine serum, 100 U/ml penicillin, and 100 μg/ml streptomycin in a 37° C., 5% CO2 incubator. All experiments were carried out 48 hours after the cells were seeded. […] The assay was performed according to the specifications of the manufacturer (MTT kit I; Roche Applied Science). […] After the incubation, 100 μl of the solvating solution (0.01 N HCl in 10% SDS solution) was added to each well for 16-20 hours. Absorbance of the samples was measured at a wavelength of 570 nm with 655 nm as a reference wavelength. Unless otherwise indicated, the extent of MTT conversion in cells exposed to MPP^+ is expressed as a percentage of the control.

[4] = tested on: CGNs; experiment: MPP+-induced neurotoxicity in CGNs, MTT and LDH assays; assay type: cell-based, rat
Protocol: All animal experiments were conducted according to the ethical guidelines of ICMS, Macau University and the Animal Care Facility, The Hong Kong Polytechnic University. Rat CGNs were prepared from 8-day-old Sprague-Dawley rats (The Animal Care Facility, The Hong Kong Polytechnic University) as described by Li et al., 2005. Briefly, neurons were seeded at a density of 2.7×10^5 cells/ml in basal modified Eagle's medium (Invitrogen) containing 10% fetal bovine serum, 25 mM KCl, 2 mM glutamine, and penicillin (100 units/ml)/streptomycin (100 μg/ml). Cytosine arabinoside (10 μM) was added to the culture medium 24 hour after plating to limit the growth of non-neuronal cells. With the use of this protocol, more than 95% of the cultured cells were granule neurons.
(§2) The percentage of surviving neurons in the presence of SU4312 and/or MPP^+ was estimated by determining the activity of mitochondrial dehydrogenases with 3(4,5-dimethylthiazol-2-yl)-2.5-diphenyltetrazolium bromide (MTT) assay (Li et al., 2007). The assay was performed according to the specifications of the manufacturer (MTT kit I; Roche Applied Science). Briefly, the neurons were cultured in 96-well plates, 10 μl of 5 mg/ml MTT labeling reagent was added to each well containing cells in 100 μl of medium, and the plates were incubated for 4 hours in a humidified incubator at 37° C. After the incubation, 100 μl of the solvating solution (0.01 N HCl in 10% SDS solution) was added to each well for 16-20 hours. Absorbance of the samples was measured at a wavelength of 570 nm with 655 nm as a reference wavelength. Unless otherwise indicated, the extent of MTT conversion in cells exposed to MPP^+ is expressed as a percentage of the control.
Cytotoxicity was determined by measuring the release of lactate dehydrogenase (LDH). Briefly, cells were precipitated by centrifugation at 500 g for 5 min at room temperature, 50 μl of the supernatants was transferred into new wells, and LDH was determined using the in vitro toxicology assay kit (Roche). The absorbance of the samples was measured at a wavelength of 490 nm with 655 nm as a reference wavelength.
Rat CGNs were prepared from 8-day-old Sprague-Dawley rats (The Animal Care Facility, The Hong Kong Polytechnic University) as described by Li et al., 2005. Briefly, neurons were seeded at a density of 2.7×10^5 cells/ml in basal modified Eagle's medium (Invitrogen) containing 10% fetal bovine serum, 25 mM KCl, 2 mM glutamine, and penicillin (100 units/ml)/streptomycin (100 μg/ml). Cytosine arabinoside (10 μM) was added to the culture medium 24 hours after plating to limit the growth of non-neuronal cells. With the use of this protocol, more than 95% of the cultured cells were granule neurons.
as §2, with “The” for “The percentage of surviving neurons in the presence of SU4312 and/or MPP^+ was estimated by determining the activity of mitochondrial dehydrogenases with 3(4,5-dimethylthiazol-2-yl)-2.5-diphenyltetrazolium bromide (MTT) assay (Li et al., 2007). The”, “incubated at 37° C.” for “incubated”, “incubator.” for “incubator at 37° C.”, “The absorbance” for “Absorbance”

[5] = target: T1, iNOS (Homo sapiens, UniProt P35228); details: cited from earlier work
[6] = target: T2, rat cerebellum nNOS (Rattus norvegicus, UniProt P29476); experiment: In vitro nNOS activity assay, rat cerebellum nNOS; assay type: biochemical
T2 construct: purchased Calbiochem
Protocol: Rat cerebellum nNOS was from Calbiochem. NOS activity was determined by monitoring the conversion of L-[3H]arginine to [3H]citrulline following the instructions provided by the kit (Calbiochem). The reaction mixture contained a final volume of 40 μl with 25 mM Tris-Cl at pH 7.4, 3 μM tetrahydrobiopterin, 1 μM FAD, 1 μM FMN, 1 mM NADPH, 0.6 mM CaCl2, 0.1 μM calmodulin, 2.5 μg of pure NOS enzyme, 5 μl L-[3H]arginine (Perkin Elmer, Waltham, Mass., USA), and different concentrations of the tested reagents. The reaction mixture was incubated at 22° C. for 45 min. The reaction was quenched by adding 400 μl of stopping buffer (50 mM HEPES, pH 5.5, and 5 mM EDTA). Unreacted L-[3H]arginine was then trapped by 100 μl of equilibrated resin in a spin cup followed by centrifugation at 13,200 rpm for 30 s.

[7] = target: T1, iNOS; experiment: In vitro NOS activity assay of Example 3, iNOS; assay type: biochemical; details: 100 μM; data not shown
[8] = tested on: CGNs; experiment: Low potassium-induced cell death in CGNs, MTT assay; assay type: cell-based; details: 5 mM KCl BME medium, 24 hours; sunitinib 0.1-2 μM
Protocol: (§3) Cell viability was measured by MTT assay at 24 hours after low potassium challenge. […] After 24 hours of low potassium challenge, CGNs were assayed with an FDA/PI double staining. […] After 24 hours of low potassium challenge, CGNs were assayed with Hoechst staining. The number of apoptotic nuclei with condensed chromatin were counted from representative Hoechst staining photomicrographs and represented as a percentage of the total number of nuclei counted. […] Intracellular NO level was measured using DAF-FM diacetate as a probe at 4 hour after low potassium challenge. Data, expressed as percentage of control (CGNs were cultured in high potassium medium), were the mean±SEM of three separate experiments; *p<0.05 and **p<0.01 versus low potassium group in (A) and (D) or versus control in (C); ^##p<0.01 versus low potassium group in (C) (Turkey's test).
It was previously reported that low potassium could induce typical apoptosis in cerebellar granule neurons (CGNs) (Fu et al., 2008). […] Cell viability was measured with an MTT assay 24 hours after the low potassium treatment.

[9] = tested on: intracellular NO; experiment: Intracellular NO in CGNs after low potassium; assay type: cell-based; details: 1.5 μM, 4 hour after low potassium challenge
Protocol: as §3

[10] = tested on: CGNs; experiment: Hoechst 33342 staining of CGNs after low potassium; assay type: cell-based; details: 1.5 μM, 24 hours
Protocol: as §3
(§4) The neurons were examined by FDA/PI double staining.

[11] = daily oral administration; cited from earlier work
[12] = tested on: nNOS knockdown SH-SY5Y cells; experiment: MPP+ in ShRNA-mediated nNOS knockdown SH-SY5Y cells; assay type: cell-based, human; details: 0.3 μM 2 hours, then 1 mM MPP+ 24 hours
Protocol: (A) SH-SY5Y cells were transfected with pG418-GFP plasmid (vector), pG418-GFP plasmid encoding nNOS ShRNA (ShnNOS) and pG418-GFP plasmid encoding negative control ShRNA (ShNC). The level of nNOS and β-actin in the cell lysates were analyzed by Western blotting assay by using specific antibodies. […] Cell viability was measured at 24 hours after MPP^+ challenge by MTT assays. Data were the mean±SEM of three separate experiments; **p<0.01 versus control; ^##p<0.01 versus MPP^+ group; ^&p<0.05 versus MPP^+ vector group (Turkey's test).

[13] = tested on: SH-SY5Y cells; details: sustained (3 days) treatment, >1 μM; cited from earlier work
[14] = tested on: CGNs; experiment: FDA/PI double staining of CGNs after low potassium; assay type: cell-based; details: 1.5 μM, 24 hours
Protocol: as §3, §4

[15] = cited from earlier work
[16] = target: eNOS (Homo sapiens, UniProt P29474); experiment: In vitro NOS activity assay of Example 3, eNOS; assay type: biochemical; details: 100 μM; data not shown
[17] = tested on: intracellular NO; experiment: Intracellular NO in SH-SY5Y cells after MPP+; assay type: cell-based, human; details: 0.3 μM 2 hours, then 1 mM MPP+ 24 hours
Protocol: Cell viability was measured by the MTT assay at 24 hours after MPP^+ challenge. […] Intracellular NO level was measured using DAF-FM diacetate as a probe at 24 hour after MPP^+ challenge. Data, expressed as percentage of control, were the mean±SEM of three separate experiments; *p<0.05 and **p<0.01 versus MPP^+ group (ANOVA and Dunnett's test).
DAF-FM diacetate was also used to evaluate the intracellular NO level in this model.

[18] = tested on: CGNs; details: VEGF 10-300 ng/ml; cited from earlier work

Compound: O=[N+]([O-])c1cccc2cn[nH]c12 [7-nitroindazole]
- IC50 [1]: 0.7 µM
- MPP+-induced elevation of intracellular NO level [2]: inhibited neuronal death and elevated level of intracellular NO induced by MPP^+
- MPP+-induced neuronal death in SH-SY5Y cells (MTT) [3]: at 5-10 μM prevented MPP^+-induced neuronal death
- MPP+-induced cell death (cell viability, MTT and LDH assays) ([4]; pre-treatment 2 hours, then 35 μM MPP+ for 24 hours): inhibited neuronal death; also recorded: protected against neuronal apoptosis
- IC50 [5]: 20 µM

Compound: CCN(CC)CCNC(=O)c1c(C)[nH]c(/C=C2\C(=O)Nc3ccc(F)cc32)c1C [Sunitinib, N-(2-diethylaminoethyl)-5-[(Z)-(5-fluoro-2-oxo-1H-indol-3-ylidene)methyl]-2,4-dimethyl-1H-pyrrole-3-carboxamide]
- IC50 [6]: 9.6 µM
- inhibitory activity against iNOS [7]: showed no inhibitory activity against iNOS or eNOS
- low potassium-induced cell death (MTT) [8]: unexpectedly prevented low potassium-induced cell death in CGNs in a concentration-dependent manner
- low potassium-stimulated NO production [9]: antagonized the stimulatory effect of low potassium on the NO production
- neuronal apoptosis induced by low potassium (Hoechst 33342) [10]: significantly reversed neuronal apoptosis induced by low potassium
- human plasma steady-state level [11]: 50 to 100 ng/mL
- cell proliferative or cytotoxic effects of the drug alone, SH-SY5Y cells [3]: did not show cell proliferative or cytotoxic effects
- toxicity to SH-SY5Y cells at higher concentration ([3]; higher concentration (sunitinib 1 μM), data not shown): at higher concentration (1 μM) showed toxicity to SH-SY5Y cells
- MPP+-induced neuronal death in SH-SY5Y cells (MTT) [3]: prevented MPP^+-induced neuronal death at 0.1-0.3 μM
- MPP+-induced cell death in nNOS knockdown SH-SY5Y cells (MTT) [12]: did not significantly inhibit MPP^+-induced cell death
- proliferation of SH-SY5Y cells (previous studies) [13]: could reduce the proliferation of SH-SY5Y cells
- loss of neurons and morphological alteration induced by low potassium (FDA/PI) [14]: significantly blocked the loss of neurons and reversed the morphological alteration
- sunitinib still accumulated in the brain ([15]; 60 min following administration): 25%
- sunitinib retained in the brain ([15]; 6 hour after oral administration): 60 ng/mL
- inhibitory activity against eNOS [16]: showed no inhibitory activity against iNOS or eNOS
- cell proliferative or cytotoxic effects of the drug alone [4]: did not show cell proliferative or cytotoxic effects
- MPP+-triggered elevation of intracellular NO level in SH-SY5Y cells [17]: attenuated MPP^+-triggered elevation of intracellular NO level

Compound: VEGF
- MPP+-induced neurotoxicity in CGNs (earlier study) [18]: protected neurons against MPP^+-induced neurotoxicity
